US8895587B2, “Insecticidal compounds based on arylthioacetamide derivatives” (Syngenta Participations AG, priority 2011, dated 2014)

Assays:
Type in all cases: in vivo
[1] = test system: Diabrotica balteata; experiment: Diabrotica balteata (corn root worm) larval test on artificial diet; details: 120 h, read-out: Control/% Diabrotica balteata Corn rootworm; for pest or weed control at 12 ppm: application rate 12 ppm; for pest or weed control at 0.8 ppm: application rate 0.8 ppm; for pest or weed control at 3 ppm: application rate 3 ppm; for pest or weed control at 50 ppm: application rate 50 ppm
[2] = test system: Heliothis virescens; experiment: Heliothis virescens (tobacco budworm) egg/larval test on artificial diet; details: 96 h; for pest or weed control at 0.8 ppm: application rate 0.8 ppm; for pest or weed control at 3 ppm: application rate 3 ppm; for pest or weed control at 0.2 ppm: application rate 0.2 ppm
[3] = test system: Plutella xylostella; experiment: Plutella xylostella (diamond back moth) larval test on artificial diet; details: 144 h; for pest or weed control at 0.8 ppm: application rate 0.8 ppm; for pest or weed control at 3 ppm: application rate 3 ppm; for pest or weed control at 0.2 ppm: application rate 0.2 ppm
[4] = test system: Spodoptera littoralis; experiment: Spodoptera littoralis (Egyptian cotton leafworm) leaf disc test; details: foliar, 72 h, application rate 200 ppm, cotton leaf discs, L1 larvae, mortality, feeding behavior, growth regulation 3 DAT
Text: Spodoptera littoralis (Egyptian Cotton Leafworm): Cotton leaf discs were placed on agar in a 24-well microtiter plate and sprayed with test solutions at an application rate of 200 ppm. After drying, the leaf discs were infested with 5 L1 larvae. The samples were checked for mortality, feeding behavior, and growth regulation 3 days after treatment (DAT).

[5] = test system: Plutella xylostella; experiment: Plutella xylostella (diamond back moth) larval test on artificial diet; details: 144 h, application rate 200 ppm (concentration in well 18 ppm), L2 larvae on artificial diet, 6 days
Description: (§1) 24-well microtiter plate (MTP) with artificial diet was treated with test solutions at an application rate of 200 ppm (concentration in well 18 ppm) by pipetting. After drying, the MTP's were infested with L2 larvae (7-12 per well). After an incubation period of 6 days, samples were checked for larval mortality and growth regulation.

[6] = test system: Myzus persicae; experiment: Myzus persicae (green peach aphid), systemic test; details: 144 h, application rate 12.5 ppm, roots of pea seedlings in test solution, 6 days
Text: Myzus persicae (Green peach aphid), systemic test: Roots of pea seedlings, infested with an aphid population of mixed ages, are placed directly in the test solutions at an application rate of 12.5 ppm. 6 days after introduction, samples are checked for mortality and special effects on the plant. The following compounds gave at least 80% control of Myzus persicae: […]

[7] = test system: Tetranychus urticae; experiment: Tetranychus urticae (two-spotted spider mite) leaf disc test; details: foliar, 192 h, application rate 200 ppm, bean leaf discs, 8 days
Text: Bean leaf discs on agar in 24-well microtiter plates were sprayed with test solutions at an application rate of 200 ppm. After drying, the leaf discs are infested with mite populations of mixed ages. 8 days later, discs are checked for egg mortality, larval mortality, and adult mortality.

[8] = test system: Heliothis virescens; experiment: Heliothis virescens (tobacco budworm) egg/larval test on artificial diet; details: 96 h, application rate 200 ppm (concentration in well 18 ppm), eggs on artificial diet, 4 days
Description: Eggs (0-24 h old) were placed in 24-well microtiter plate on artificial diet and treated with test solutions at an application rate of 200 ppm (concentration in well 18 ppm) by pipetting. After an incubation period of 4 days, samples were checked for egg mortality, larval mortality, and growth regulation.

[9] = test system: Diabrotica balteata; experiment: Diabrotica balteata (corn root worm) larval test on artificial diet; details: 120 h, application rate 200 ppm (concentration in well 18 ppm), L2 larvae on artificial diet, 5 days
Description: as §1, with “Diabrotica balteata (Corn Root Worm): A 24-well” for “24-well”, “(6-10” for “(7-12”, “5” for “6”

[10] = test system: Thrips tabaci; experiment: Thrips tabaci (onion thrips) leaf disc test; details: foliar, 168 h, application rate 200 ppm, sunflower leaf discs, 7 days
Description: Sunflower leaf discs were placed on agar in a 24-well microtiter plate and sprayed with test solutions at an application rate of 200 ppm. After drying, the leaf discs were infested with a thrips population of mixed ages. After an incubation period of 7 days, samples were checked for mortality.

| SMILES | pest or weed control at 12 ppm [1] [%] | pest or weed control at 0.8 ppm [2] [%] | pest or weed control at 3 ppm [2] [%] | pest or weed control at 0.8 ppm [3] [%] | pest or weed control at 3 ppm [3] [%] | pest or weed control at 0.8 ppm [1] [%] | pest or weed control at 3 ppm [1] [%] | pest or weed control at 0.2 ppm [2] [%] | pest or weed control at 0.2 ppm [3] [%] | pest or weed control at 50 ppm [1] [%] | pest or weed control at 200 ppm [4] [%] | pest or weed control at 200 ppm [5] [%] | pest or weed control at 12.5 ppm [6] [%] | pest or weed control at 200 ppm [7] [%] | pest or weed control at 200 ppm [8] [%] | pest or weed control at 200 ppm [9] [%] | pest or weed control at 200 ppm [10] [%] |
| --- | --- | --- | --- | --- | --- | --- | --- | --- | --- | --- | --- | --- | --- | --- | --- | --- | --- |
| CSc1ccc(C2=NOC(c3cc(Cl)cc(Cl)c3)(C(F)(F)F)C2)cc1C (stereo not drawn) [Compound 1-020] | 20 | 0 | 0 | 0 | 0 | – | – | – | – | – | – | – | – | – | – | – | – |
| O=C(CSc1ccc(C2=NOC(c3cc(Cl)cc(Cl)c3)(C(F)(F)F)C2)cc1)NCC(F)(F)F (stereo not drawn) [Compound 1-028] | 100 | 0 | 90 | 0 | 50 | 0 | 20 | 0 | 0 | – | – | – | – | – | – | – | – |
| Cc1cc(C2=NOC(c3cc(Cl)cc(Cl)c3)(C(F)(F)F)C2)ccc1S(C)(=O)=O (stereo not drawn) [Compound 1-021] | 0 | 0 | 0 | 0 | 0 | – | – | – | – | 90 | – | – | – | – | – | – | – |
| Cc1cc(C2=NOC(c3cc(Cl)cc(Cl)c3)(C(F)(F)F)C2)ccc1[S+](C)[O-] (stereo not drawn) | 0 | 0 | 0 | 0 | 0 | – | 0 | – | – | – | – | – | – | – | – | – | – |
| O=C(CSc1ccc(C2=NOC(c3cc(Cl)cc(Cl)c3)(C(F)(F)F)C2)cc1Cl)NCC(F)(F)F (stereo not drawn) [Compound A5, 2-{2-Chloro-4-[5-(3,5-Dichloro-phenyl)-5-trifluoromethyl-4,5-dihydro-isoxazol-3-yl]-phenylsulfanyl}-N-(2,2,2-trifluoro-ethyl)-acetamide] | – | – | – | – | – | – | – | – | – | – | ≥ 80 | ≥ 80 | ≥ 80 | ≥ 80 | ≥ 80 | ≥ 80 | ≥ 80 |
| Cc1cc(C2=NO[C@@](c3cc(Cl)cc(Cl)c3)(C(F)(F)F)C2)ccc1SCC(=O)NCC(F)(F)F [Compound C1, 2-{4-[(S)-5-(3,5-Dichloro-phenyl)-5-trifluoromethyl-4,5-dihydro-isoxazol-3-yl]-2-methyl-phenylsulfanyl}-N-(2,2,2-trifluoro-ethyl)-acetamide] | 100 | 80 | 100 | 100 | 100 | 80 | 100 | 80 | 80 | – | – | ≥ 80 | ≥ 80 | ≥ 80 | ≥ 80 | – | ≥ 80 |
| O=C(CSc1ccc(C2=NO[C@@](c3cc(Cl)cc(Cl)c3)(C(F)(F)F)C2)c2ccccc12)NCC(F)(F)F [Compound G2, 2-[[4-[5-(S)-(3,5-dichlorophenyl)-5-(trifluoromethyl)-4H-isoxazol-3-yl]-1-naphthyl]sulfanyl]-N-(2,2,2-trifluoroethyl)acetamide] | – | – | – | – | – | – | – | – | – | – | ≥ 80 | ≥ 80 | ≥ 80 | ≥ 80 | ≥ 80 | ≥ 80 | ≥ 80 |
| O=C(CS(=O)(=O)c1ccc(C2=NOC(c3cc(Cl)cc(Cl)c3)(C(F)(F)F)C2)cc1)NCC(F)(F)F (stereo not drawn) [Compound 1-030] | 50 | 0 | 80 | 0 | 0 | – | – | – | – | 100 | – | – | – | – | – | – | – |
| O=C(CSc1ccc(C2=NO[C@@](c3cc(Cl)c(Cl)c(Cl)c3)(C(F)(F)F)C2)cc1Cl)NC1CC1 [Compound D4, 2-[2-chloro-4-[(5S)-5-(3,4,5-trichlorophenyl)-5-(trifluoromethyl)-4H-isoxazol-3-yl]phenyl]sulfanyl-N-cyclopropyl-acetamide] | – | – | – | – | – | – | – | – | – | – | ≥ 80 | ≥ 80 | ≥ 80 | ≥ 80 | ≥ 80 | ≥ 80 | ≥ 80 |
| O=C(C[S+]([O-])c1ccc(C2=NCC(c3cc(Cl)cc(Cl)c3)(C(F)(F)F)C2)cc1Cl)NCC(F)(F)F (stereo not drawn) [Compound B2, 2-{2-Chloro-4-[4-(3,5-dichloro-phenyl)-4-trifluoromethyl-4,5-dihydro-3H-pyrrol-2-yl]-benzenesulfinyl}-N-(2,2,2-trifluoro-ethyl)-acetamide] | – | – | – | – | – | – | – | – | – | – | ≥ 80 | ≥ 80 | ≥ 80 | ≥ 80 | ≥ 80 | ≥ 80 | ≥ 80 |
| O=C(CSc1ccc(C2=NO[C@@](c3cc(Cl)cc(Cl)c3)(C(F)(F)F)C2)cc1F)NCC(F)(F)F [Compound C63, 2-[4-[(5S)-5-(3,5-dichlorophenyl)-5-(trifluoromethyl)-4H-isoxazol-3-yl]-2-fluoro-phenyl]sulfanyl-N-(2,2,2-trifluoroethyl)acetamide] | – | – | – | – | – | – | – | – | – | – | ≥ 80 | ≥ 80 | ≥ 80 | ≥ 80 | ≥ 80 | ≥ 80 | ≥ 80 |
| O=C(C[S+]([O-])c1ccc(C2=NOC(c3cc(Cl)cc(Cl)c3)(C(F)(F)F)C2)cc1)NCC(F)(F)F (stereo not drawn) [Compound 1-029] | 50 | 0 | 80 | 0 | 80 | – | – | – | – | 100 | – | – | – | – | – | – | – |
| N#CC1(NC(=O)C[S+]([O-])c2ccc(C3=NOC(c4cc(Cl)cc(Cl)c4)(C(F)(F)F)C3)cc2Cl)CC1 (stereo not drawn) [Compound A56, 2-[2-chloro-4-[5-(3,5-dichlorophenyl)-5-(trifluoromethyl)-4H-isoxazol-3-yl]phenyl]sulfinyl-N-(1-cyanocyclopropyl)acetamide] | – | – | – | – | – | – | – | – | – | – | ≥ 80 | ≥ 80 | ≥ 80 | ≥ 80 | ≥ 80 | ≥ 80 | ≥ 80 |
| N#CC1(NC(=O)CSc2ccc(C3=NOC(c4cc(Cl)cc(Cl)c4)(C(F)(F)F)C3)cc2Cl)CC1 (stereo not drawn) [Compound A60, 2-[2-chloro-4-[5-(3,5-dichlorophenyl)-5-(trifluoromethyl)-4H-isoxazol-3-yl]phenyl]sulfanyl-N-(1-cyanocyclopropyl)acetamide] | – | – | – | – | – | – | – | – | – | – | ≥ 80 | ≥ 80 | ≥ 80 | ≥ 80 | ≥ 80 | ≥ 80 | ≥ 80 |
| O=C(CSc1ccc(C2=NOC(c3cc(Cl)cc(Cl)c3)(C(F)(F)F)C2)cc1Br)NCC(F)(F)F (stereo not drawn) [Compound A29, 2-{2-bromo-4-[5-(3,5-dichloro-phenyl)-5-trifluoromethyl-4,5-dihydro-isoxazol-3-yl]-phenylsulfanyl}-N-(2,2,2-trifluoro-ethyl)-acetamide] | – | – | – | – | – | – | – | – | – | – | ≥ 80 | ≥ 80 | ≥ 80 | ≥ 80 | ≥ 80 | ≥ 80 | ≥ 80 |
